The target in one test is T1, Bile acid receptor (Homo sapiens, UniProt Q96RI1).
T1 sequence (Q96RI1 whole entry): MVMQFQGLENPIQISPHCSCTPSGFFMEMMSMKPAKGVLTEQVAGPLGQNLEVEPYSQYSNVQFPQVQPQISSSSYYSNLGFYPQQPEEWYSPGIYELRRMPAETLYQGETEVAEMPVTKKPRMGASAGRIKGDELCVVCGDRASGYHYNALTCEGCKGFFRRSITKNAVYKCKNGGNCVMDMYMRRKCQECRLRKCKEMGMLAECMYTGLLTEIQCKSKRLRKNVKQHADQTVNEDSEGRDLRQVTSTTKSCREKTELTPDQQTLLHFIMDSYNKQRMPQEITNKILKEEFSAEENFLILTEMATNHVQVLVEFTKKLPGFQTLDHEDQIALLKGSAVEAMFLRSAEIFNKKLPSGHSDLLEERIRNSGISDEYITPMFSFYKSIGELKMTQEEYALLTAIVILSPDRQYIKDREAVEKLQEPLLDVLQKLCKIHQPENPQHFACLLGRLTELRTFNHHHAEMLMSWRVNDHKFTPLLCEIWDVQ
Nature of the test: Agonist activity at human FXR expressed in african green monkey CV1 cells co-expressing ECRE with RXR co-factor by luciferase reporter gene assay. Format: functional, cell-based, CV-1.

For test [1], the target named is T2, Bile acid receptor (Homo sapiens) (UniProt Q96RI1).
T2 sequence (whole entry): T1 sequence (Q96RI1 whole entry)
The test is described as follows: Agonist activity at human FXR expressed in african green monkey CV1 cells co-expressing ECRE with RXR co-factor up to 10 uM by luciferase reporter gene assay relative to CDCA. The class given is functional, cell-based. The conditions noted are these: CV-1. Background: In a reporter assay the amount or activity of a reporter protein is the signal.

pEC50: −log10 of the molar value.

Experimental findings from ChEMBL document CHEMBL1140941 (J Med Chem, 2009) are described below.

For orientation: pEC50 means the EC50 on a negative log10 scale, so that one unit is a factor of ten.

In turn, `CCOC(=O)C1=CN(C(=O)c2ccc(Cl)cc2)CC(C)c2c1[nH]c1ccccc21` (stereo not given) gave a pEC50 on Bile acid receptor of 7.14. This compound came in with an Efficacy in test [1] of 155%. `CCOC(=O)C1=CN(C(=O)c2ccc(F)c(F)c2)CC(C)c2c1[nH]c1ccccc21` (stereo not given) showed a pEC50 on Bile acid receptor of 7.49. In addition, in test [1], the Efficacy came out at 170%.

`CCOC(=O)C1=CN(C(=O)c2ccc(F)cc2)CC(C)(C)c2c1[nH]c1ccccc21`: the pEC50 at Bile acid receptor was 7.66. For the same compound, the Efficacy in test [1] is 148%. `CCOC(=O)C1=CN(C(=O)c2ccc(Cl)cc2)CC(C)(C)c2c1[nH]c1ccccc21` gave a pEC50 at Bile acid receptor of 7.60. Moreover, the Efficacy in test [1] stood at 190%. At Bile acid receptor, `CC(C)OC(=O)C1=CN(C(=O)c2ccc(F)cc2)CC(C)(C)c2c1[nH]c1ccccc21` had a pEC50 of 8.10. Also, the Efficacy in test [1] was 146%. Consider `CC(C)OC(=O)C1=CN(C(=O)c2ccc(F)cc2)CCc2c1[nH]c1ccccc21`, for which the pEC50 at Bile acid receptor is 6.30. The Efficacy in test [1] worked out at 120%. In the case of `CCCCOC(=O)C1=CN(C(=O)c2ccc(F)cc2)CCc2c1[nH]c1ccccc21`, the pEC50 at Bile acid receptor is 5.96. Besides, the Efficacy in test [1] came out at 109%. In the case of `CCOC(=O)C1=CN(C(=O)c2ccc(F)cc2)CC(C)c2c1[nH]c1ccccc21` (stereo not given), on Bile acid receptor, the pEC50 was 7.24. Moreover, the Efficacy in test [1] worked out at 160%. Turning to `CCOC(=O)C1=CN(C(=O)c2ccc(OC)cc2)CC(C)(C)c2c1[nH]c1ccccc21`, at Bile acid receptor, the pEC50 is 7.54. In test [1], this compound came in with an Efficacy of 139%. For `CCOC(=O)C1=CN(C(=O)c2ccc(OC)cc2)CC(C)c2c1[nH]c1ccccc21` (stereo not given), the pEC50 on Bile acid receptor was 7.22. This compound displayed an Efficacy in test [1] of 145%. On to `CCCOC(=O)C1=CN(C(=O)c2ccc(F)cc2)CCc2c1[nH]c1ccccc21`, for which, on Bile acid receptor, the pEC50 was 6.30. The compound further displayed an Efficacy in test [1] of 130%. On to `CCOC(=O)C1=CN(C(=O)c2ccc(F)cc2)CCc2c1[nH]c1ccccc21`, for which the pEC50 on Bile acid receptor was 6.22. In addition, the Efficacy in test [1] turned out to be 100%.

Turning to `CCOC(=O)C1=CN(C(=O)c2ccc(F)c(F)c2)CC(C)(C)c2c1[nH]c1ccccc21`, the Efficacy in test [1] was found to be 144%.
